This is an account of results in PMC4909201 (PLoS ONE, 2016).

Read-outs that look alike come from different tables or passages of the source.

Assay [1] deals with T1, 125I-thrombin binding to γA/γ′-fibrin clots (Homo sapiens, UniProt P00734).
T1 construct: purchased Enzyme Research Laboratories (South Bend, IN)
Briefly: 125I-thrombin binding to γA/γ′-fibrin clots. As to conditions: for Ki: EC50 converted by Cheng-Prusoff with Kd of 125I-thrombin for fibrin, 10 nM 125I-thrombin, 1 μM γA/γ′-fibrinogen.

Assay [2] addresses T2, thrombin binding to GpIbα269-286ppp (Homo sapiens, UniProt P00734).
T2 construct: purchased Enzyme Research Laboratories (South Bend, IN)
Briefly: SPR: effect of active site inhibitors on thrombin binding to immobilized GpIbα269-286ppp. Particulars: for increase in affinity of thrombin for GpIbα269-286ppp: 2.5 μM inhibitor vs no inhibitor, p < 0.001; for Change: difference between thrombin binding without inhibitor and at saturating inhibitor. On the procedure:
Between runs, flow cells were regenerated with 1 M NaCl for 30 s. […] EC50 values were determined as above. […] Binding affinities were calculated as described above.
In general terms: In SPR one partner is held on a chip, and binding of the other changes the refractive index at the surface.

Assay [3] has as its target T3, 125I-thrombin binding to γA/γA-fibrin clots (Homo sapiens, UniProt P00734).
T3 construct: purchased Enzyme Research Laboratories (South Bend, IN)
As to the kind of experiment: 125I-thrombin binding to γA/γA-fibrin clots. As to conditions: for Ki: EC50 converted by Cheng-Prusoff with Kd of 125I-thrombin for fibrin, 10 nM 125I-thrombin, 3 μM γA/γA-fibrinogen.

The target in assay [4] is thrombin binding to immobilized factor Va (Homo sapiens, UniProt P00734). As to the kind of experiment: SPR: effect of active site inhibitors on thrombin binding to immobilized factor Va.
Procedure: (§1) Flows cells were then washed with 1 M ethanolamine for 420 s, followed by the running buffer composed of 20 mM HEPES, 150 mM NaCl, pH 7.4 (HBS) containing 0.01% Tween-80 (HBS-Tw) and 5 mM CaCl2.
(§2) Because of the fast on- and off-rates, all SPR experiments were performed at a flow rate of 25 μl/min [28]. Association times were 120 s and dissociation was monitored by washing the flow cells with HBS-Tw for 600 s. Between runs, flow cells were regenerated with a 45 s wash with HBS-Tw containing 0.5 M CaCl2.
(§3) The rapid approach to equilibrium at the low flow rate nullified any potential mass transport concerns. Nonspecific binding was accounted for by subtracting the control RU values obtained from the unmodified flow cell.
A further assay has as its target thrombin. Particulars: thrombin inhibition; cited from earlier work.
In assay [5] the target is thrombin binding to immobilized γA/γA-fibrin (Homo sapiens, UniProt P00734). As to the kind of experiment: SPR: effect of active site inhibitors on thrombin binding to immobilized γA/γA-fibrin.
Procedure: as §1, §2, §3
The target of assay [6] is thrombin binding to immobilized γA/γ′-fibrin (Homo sapiens, UniProt P00734). As to the kind of experiment: SPR: effect of active site inhibitors on thrombin binding to immobilized γA/γ′-fibrin.
Procedure: as §1, §2, §3
[7] abbreviates: maximal change in percentage of bound 125I-thrombin vs no inhibitor.
Where [8] appears, read: maximal change in percentage of bound 125I-thrombin vs no inhibitor, listed as argatroban.
Where [9] appears, read: 0–5000 nM inhibitor, 250–500 nM thrombin.
The mark [10] stands for this setting: given as reduction (positive number).
Where [11] appears, read: maximal change in percentage of bound 125I-thrombin vs no inhibitor, listed as hirudin.

The EC50 is the concentration that produces a half-maximal response. Usually Ki stands for the equilibrium dissociation constant of an inhibitor or competing ligand from its target.

For the compound `CC1CNc2c(cccc2S(=O)(=O)N[C@@H](CCCNC(=N)N)C(=O)N2CC[C@@H](C)C[C@@H]2C(=O)O)C1` (stereo partly shown) [Argatroban, argatroban], the Change entry in assay [1] (setting [7]) is recorded as “+26.1 ± 0.4%”; in assay [1] (setting [8]) it was 15–25%; in assay [2], “+17.3 ± 0.6%”; in assay [2] (listed as argatroban), 17%; in assay [3] (setting [7]), “+18.3 ± 5.0%”; in assay [3] (setting [8]), 15–25%. The “increase in affinity of thrombin for GpIbα269-286ppp” value in assay [2] was 25–35%.
For the compound `CCC1CCN(C(=O)C(CCCN=C(N)N)NS(=O)(=O)c2cccc3c(N(C)C)cccc23)CC1` (stereo not shown) [DAPA, dansylarginine N-(3-ethyl-1,5-pentanediyl)amide], the EC50 in assay [4] (setting [9]) turned out to be 0.565 ± 0.2 µM; in assay [5] (0–5000 nM inhibitor, 250–500 nM thrombin, Req vs inhibitor concentration) it was 0.514 ± 0.024 µM; in assay [6] (setting [9]), 0.516 ± 0.031 µM; in assay [2] (0–5000 nM inhibitor, 250 nM thrombin) it was 1.29 ± 0.0323 µM. Further, the Ki was 0.045 µM on thrombin, 0.0196 ± 0.0191 µM in assay [1] and 0.0021 ± 0.0009 µM in assay [3]. Further, the “increase in affinity of thrombin for GpIbα269-286ppp” value in assay [2] is listed as 25–35%.
For `[H]/N=C(/N)c1ccc(NCc2nc3cc(C(=O)N(CCC(=O)O)c4ccccn4)ccc3n2C)cc1` [Dabigatran, dabigatran], the “reduction of thrombin binding at saturation” value in assay [4] (setting [10]) turned out to be 37.9 ± 3.2%; in assay [5] (setting [10]) it was 47.6 ± 0.4%; in assay [6] (setting [10]), 28.4 ± 1.6%. The Change is on record as -9.4 ± 1.4% in assay [1], 0% in assay [2], “no effect” in assay [2] (listed as dabigatran) and -21.4 ± 3.3% in assay [3].
As to Hirudin, the inhibitory constant (Ki) in assay [1] turned out to be 0.0034 ± 0.0001 µM; in assay [3], 0.0034 ± 0.0003 µM. The Change in assay [1] (setting [7]) was -100%; in assay [1] (setting [11]), “fully inhibited”; in assay [3] (setting [7]), -100%; in assay [3] (setting [11]), “fully inhibited”.
